Patent US20080280879A1, “SUBSTITUTED HETEROCYCLIC DERIVATIVES AND THEIR PHARMACEUTICAL USE AND COMPOSITIONS” (priority 2007, published 2008)
In brackets after ≈: the same amount, converted by molar mass. Several values for one entry are separate records, joined by “and”; a condition that tells them apart may be missing. Equal values may be shown once.

How the values were obtained:
Format in all cases: cell-based, Staphylococcus aureus
Staph aureus 1095 MRSA = test: MIC, microtiter broth dilution (CLSI M7-A7), Assay 1, Table 12 column A, no serum; conditions: Assay 1, no serum; for MIC: Staphylococcus aureus, MRSA
Summary of the method: (§1)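 Staphylococcus aureus susceptibility is measured by CLSI M7-A7 broth microdilution in microtiter trays. For serum testing, bacteria are inoculated into Mueller-Hinton Broth containing 50% pooled inactivated human serum. The MIC in μg/ml is the lowest concentration preventing visible growth.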

Staph aureus 1146 [1] = test: MIC, microtiter broth dilution (CLSI M7-A7), Assay 1, Table 12 column B, no serum; conditions: for MIC, column B: Staph aureus 1146, Assay 1, no serum
Summary of the method: as §1

Staph aureus 1146 [2] = test: MIC in Mueller-Hinton Broth with 50% pooled inactivated human serum, Assay 1, Table 12; conditions: for MIC, column C: Staph aureus 1146, Assay 1, 50% human serum
Summary of the method: as §1

Staph aureus 2811 = test: MIC, microtiter broth dilution (CLSI M7-A7), Assay 1, Table 12 column D, no serum; conditions: for MIC, column D: Staph aureus 2811, Assay 1, no serum
Summary of the method: as §1

Staph aureus 2812 = test: MIC, microtiter broth dilution (CLSI M7-A7), Assay 1, Table 12 column E, no serum; conditions: for MIC, column E: Staph aureus 2812, Assay 1, no serum; for MIC: Staphylococcus aureus, 2812, Staph aureus 2812, Assay 1, no serum
Summary of the method: as §1

Staph aureus 1031 [3] = test: MIC, microtiter broth dilution (CLSI M7-A7), Assay 2, Table 12 column F, no serum; conditions: for MIC, column F: Staph aureus 1031, Assay 2, no serum; for MIC: Staphylococcus aureus, 1031, Staph aureus 1031, Assay 2, no serum
Experimental: (§2) The assays described herein include a panel of bacterial isolates of Staphylococcus aureus. Assay 1 comprises the strains noted in Columns A through E, and Assay 2 comprises the strains noted in Columns F through H. The assays are performed in microtiter trays according to Methods for Dilution Antimicrobial Susceptibility Tests for Bacteria that Grow Aerobically; Approved Standard-7th edition (M7-A7) and interpreted according to the Performance Standards for Antimicrobial Susceptibility Testing; 16th Informational Supplement (M100-S16) published by Clinical Laboratory Standards Institute (CLSI). The antibacterial activity is presented in the form of a minimum inhibitory concentration (MIC) value in μg/ml format. The MIC value represents the lowest concentration of drug measured which prevented macroscopically visible growth under the conditions and specific doses tested. The compounds were initially dissolved in DMSO as 30 mM stocks and diluted accordingly to adjust to a concentration of 10 mg/ml or the compounds were dissolved in DMSO at a concentration of 10 mg/ml. For assessment of activity in the presence of human serum, S. aureus 1146 and S. aureus 1031 were inoculated into Mueller-Hinton Broth with 50% pooled inactivated human serum. In some cases, compounds were tested more than once in a particular assay. Where noted, the MIC value shown in Table 12 represents the geometric mean of the data from multiple runs.
(§3) It should be understood that the data in columns A-H represents MIC data in μg/ml and the notation “<=” means ‘less than or equal to’.

Staph aureus 1031 [4] = test: MIC in Mueller-Hinton Broth with 50% pooled inactivated human serum, Assay 2, Table 12 column G; conditions: for MIC, column G: Staph aureus 1031, Assay 2, 50% human serum; for MIC: Staphylococcus aureus, 1031, Staph aureus 1031, Assay 2, 50% human serum
Experimental: as §2, §3

Staph aureus 2810 = test: MIC, microtiter broth dilution (CLSI M7-A7), Assay 2, Table 12 column H, no serum; conditions: for MIC, column H: Staph aureus 2810, Assay 2, no serum; for MIC: Staphylococcus aureus, 2810, Staph aureus 2810, Assay 2, no serum
Experimental: as §2, §3

4-{[2-(3-chloro-6-methoxyquinolin-4-yl)ethyl]amino}-1-[(2-phenylcyclopropyl)ethyl]zepane-4-carboxylic acid [Example 151]
MIC, column A (Staph aureus 1095 MRSA): 8 mg/L | MIC, column B (Staph aureus 1146 [1]): 4 mg/L | MIC, column C (Staph aureus 1146 [2]): 32 mg/L | MIC, column D (Staph aureus 2811): 2 mg/L | MIC, column E (Staph aureus 2812): 4 mg/L | MIC, column F (Staph aureus 1031 [3]): 2 mg/L | MIC, column G (Staph aureus 1031 [4]): 64 mg/L | MIC, column H (Staph aureus 2810): 2 mg/L

4-{[2-(3-chloro-6-methoxyquinolin-4-yl)ethyl]mino}-1-(3-phenylcyclobutyl) azepane-4-carboxylic acid [Example 152]
MIC, column B (Staph aureus 1146 [1]): 0.125 mg/L | MIC, column C (Staph aureus 1146 [2]): 1 mg/L and 2 mg/L | MIC, column D (Staph aureus 2811): <=.0625 μg/ml | MIC, column F (Staph aureus 1031 [3]): <=.0625 μg/ml | MIC, column G (Staph aureus 1031 [4]): 2 mg/L | MIC, column H (Staph aureus 2810): 0.125 mg/L

COC(=O)[C@H]1CN(C[C@@H]2C[C@H]2c2ccccc2)CC[C@H]1CCC(O)c1ccnc2ccc(OC)cc12 (mixture of isomers) [Example 5, methyl (3R,4R)-4-[3-hydroxy-3-(6-methoxyquinolin-4-yl)propyl]-1-{[(trans)-2-phenylcyclopropyl]methyl}piperidine-3-carboxylate]
MIC (Staph aureus 1095 MRSA): 2 mg/L | MIC (Staph aureus 1146 [1]; Staphylococcus aureus, 1146, Staph aureus 1146, Assay 1, no serum): 4 mg/L | MIC (Staph aureus 1146 [2]; Staphylococcus aureus, 1146, Staph aureus 1146, Assay 1, 50% human serum, read-out: MIC, column C): 32 mg/L | MIC (Staph aureus 2811; Staphylococcus aureus, 2811, Staph aureus 2811, Assay 1, no serum): 8 mg/L | MIC (Staph aureus 2812): 4 mg/L | MIC (Staph aureus 1031 [3]): 4 mg/L | MIC (Staph aureus 1031 [4]): 64 mg/L | MIC (Staph aureus 2810): 8 mg/L

COc1ccc2nccc(C(O)CC[C@@H]3CCN(C4CC(c5ccccc5)C4)C[C@@H]3C(=O)O)c2c1 (single isomer, unassigned) [Example 2]
MIC (Staph aureus 1095 MRSA): 0.25 mg/L (≈ 0.527 µM) | MIC, column B (Staph aureus 1146 [1]): <=.0625 μg/ml | MIC, column C (Staph aureus 1146 [2]): 0.4629 mg/L (≈ 0.975 µM) | MIC, column D (Staph aureus 2811): <=.0884 μg/ml | MIC (Staph aureus 2812): 0.158 mg/L (≈ 0.332 µM) | MIC, column F (Staph aureus 1031 [3]): 0.125 mg/L (≈ 0.263 µM) | MIC, column G (Staph aureus 1031 [4]): 0.5 mg/L (≈ 1.05 µM) | MIC, column H (Staph aureus 2810): <=.0625 μg/ml

COc1ccc2nccc(C(O)CC[C@@H]3CCN(C4CC(c5ccccc5)C4)C[C@@H]3C(=O)O)c2c1 (single isomer, unassigned) [Example 3]
MIC, column A (Staph aureus 1095 MRSA): 0.25 mg/L (≈ 0.527 µM) | MIC, column B (Staph aureus 1146 [1]): <=.1768 μg/ml | MIC, column C (Staph aureus 1146 [2]): 1.7818 mg/L (≈ 3.75 µM) | MIC, column D (Staph aureus 2811): <=.25 μg/ml | MIC, column E (Staph aureus 2812): 0.25 mg/L (≈ 0.527 µM) | MIC, column F (Staph aureus 1031 [3]): 0.5 mg/L (≈ 1.05 µM) | MIC, column G (Staph aureus 1031 [4]): 4 mg/L (≈ 8.43 µM) | MIC, column H (Staph aureus 2810): 0.5 mg/L (≈ 1.05 µM)

COc1ccc2nccc(C(O)CC[C@@H]3CCN(C4CC(c5ccccc5)C4)C[C@@H]3C(=O)O)c2c1 (single isomer, unassigned) [Example 4]
MIC, column A (Staph aureus 1095 MRSA): 2 mg/L (≈ 4.21 µM) | MIC, column B (Staph aureus 1146 [1]): 1 mg/L (≈ 2.11 µM) | MIC, column C (Staph aureus 1146 [2]): 4 mg/L (≈ 8.43 µM) | MIC, column D (Staph aureus 2811): 1 mg/L (≈ 2.11 µM) | MIC, column E (Staph aureus 2812): 1 mg/L (≈ 2.11 µM) | MIC, column F (Staph aureus 1031 [3]): 0.5 mg/L (≈ 1.05 µM) | MIC (Staph aureus 1031 [4]): 4 mg/L (≈ 8.43 µM) | MIC, column H (Staph aureus 2810): 0.5 mg/L (≈ 1.05 µM)

COc1ccc2nccc(C(O)CC[C@@H]3CCN(CC4Cc5ccccc5C4)C[C@@H]3C(=O)O)c2c1 (stereo partly drawn) [Example 83, (3R,4R)-1-((2,3-dihydro-1H-inden-2-yl)methyl)-4-(3-hydroxy-3-(6-methoxyquinolin-4-yl)propyl)piperidine-3-carboxylic acid]
MIC (Staph aureus 1031 [3]): 8 mg/L (≈ 16.9 µM) | MIC (Staph aureus 1031 [4]): 64 mg/L (≈ 135 µM) | MIC (Staph aureus 2810): 8 mg/L (≈ 16.9 µM)

COc1ccc2nccc(C(O)CC[C@@H]3CCN(CC4(O)Cc5ccccc5C4)C[C@@H]3C(=O)O)c2c1 (stereo partly drawn) [Example 84, (3R,4R)-1-((2-hydroxy-2,3-dihydro-1H-inden-2-yl)methyl)-4-(3-hydroxy-3-(6-methoxyquinolin-4-yl)propyl)piperidine-3-carboxylic acid]
MIC (Staph aureus 1031 [3]): > 64 mg/L | MIC (Staph aureus 1031 [4]): > 64 mg/L | MIC (Staph aureus 2810): > 64 mg/L

COc1ccc2nccc(C(O)CC[C@@H]3CCN(CC4CCc5nc(C(C)C)ncc5C4)C[C@@H]3C(=O)O)c2c1 (stereo partly drawn) [Example 116, (3R,4R)-4-[3-hydroxy-3-(6-methoxyquinolin-4-yl)propyl]-1-[(2-isopropyl-5,6,7,8-tetrahydroquinazolin-6-yl)methyl]piperidine-3-carboxylic acid]
MIC (Staph aureus 1031 [3]): > 64 mg/L | MIC (Staph aureus 1031 [4]): > 64 mg/L | MIC (Staph aureus 2810): > 64 mg/L

COc1ccc2nccc(C(O)CC[C@@H]3CCN(CC4CCc5nc(CC6CC6)ncc5C4)C[C@@H]3C(=O)O)c2c1 (stereo partly drawn) [Example 117, (3R,4R)-1-{[2-(cyclopropylmethyl)-5,6,7,8-tetrahydroquinazolin-6-yl]methyl}-4-[3-hydroxy-3-(6-methoxyquinolin-4-yl)propyl]piperidine-3-carboxylic acid]
MIC (Staph aureus 1031 [3]): > 64 mg/L | MIC (Staph aureus 1031 [4]): > 64 mg/L | MIC (Staph aureus 2810): > 64 mg/L

COc1ccc2nccc(C(O)CC[C@@H]3CCN(CC4CCc5nc(-c6ccccc6)ncc5C4)C[C@@H]3C(=O)O)c2c1 (stereo partly drawn) [Example 118, (3R,4R)-4-[3-hydroxy-3-(6-methoxyquinolin-4-yl)propyl]-1-[(2-phenyl-5,6,7,8-tetrahydroquinazolin-6-yl)methyl]piperidine-3-carboxylic acid]
MIC (Staph aureus 1031 [3]): > 64 mg/L | MIC (Staph aureus 1031 [4]): > 64 mg/L | MIC (Staph aureus 2810): > 64 mg/L

COc1ccc2nccc(C(O)CC[C@@H]3CCN(CC4CCc5nc(-c6cnccn6)ncc5C4)C[C@@H]3C(=O)O)c2c1 (stereo partly drawn) [Example 119, (3R,4R)-4-[3-hydroxy-3-(6-methoxyquinolin-4-yl)propyl]-1-[(2-pyrazin-2-yl-5,6,7,8-tetrahydroquinazolin-6-yl)methyl]piperidine-3-carboxylic acid]
MIC (Staph aureus 1031 [3]): > 64 mg/L | MIC (Staph aureus 1031 [4]): > 64 mg/L | MIC (Staph aureus 2810): > 64 mg/L

COc1ccc2nccc(C(O)CC[C@@H]3CCN(CC4CCc5nc(N6CCCCC6)ncc5C4)C[C@@H]3C(=O)O)c2c1 (stereo partly drawn) [Example 120, (3R,4R)-4-[3-hydroxy-3-(6-methoxyquinolin-4-yl)propyl]-1-[(2-piperidin-1-yl-5,6,7,8-tetrahydroquinazolin-6-yl)methyl]piperidine-3-carboxylic acid]
MIC (Staph aureus 1031 [3]): > 64 mg/L | MIC (Staph aureus 1031 [4]): > 64 mg/L | MIC (Staph aureus 2810): > 64 mg/L

COC(=O)[C@H]1CN(C2CN(c3ccccn3)C2)CC[C@H]1CCC(O)c1ccnc2ccc(OC)cc12 (stereo partly drawn) [Example 124, methyl (3R,4R)-4-[3-hydroxy-3-(6-methoxyquinolin-4-yl)propyl]-1-(1-pyridin-2-ylazetidin-3-yl)piperidine-3-carboxylate]
MIC (Staph aureus 1031 [3]): > 64 mg/L | MIC (Staph aureus 1031 [4]): > 64 mg/L | MIC (Staph aureus 2810): > 64 mg/L

COc1ccc2nccc(C(O)CC[C@@H]3CCN(C4CN(c5ccccn5)C4)C[C@@H]3C(=O)O)c2c1 (stereo partly drawn) [Example 125, (3R,4R)-4-[3-hydroxy-3-(6-methoxyquinolin-4-yl)propyl]-1-(1-pyridin-2-ylazetidin-3-yl)piperidine-3-carboxylic acid]
MIC (Staph aureus 1031 [3]): > 64 mg/L | MIC (Staph aureus 1031 [4]): > 64 mg/L | MIC (Staph aureus 2810): 32 mg/L (≈ 67.1 µM)

COc1ccc2ncc(Cl)c(CCNC3(C(=O)O)CCCN(CC4CCc5nc(C)ncc5C4)CC3)c2c1 (stereo not shown) [Example 158, 4-{[2-(3-chloro-6-methoxyquinolin-4-yl)ethyl]amino}-1-[(2-methyl-5,6,7,8-tetra hydroquinazolin-6-yl)methyl]azepane-4-carboxylic acid]
MIC (Staph aureus 1031 [3]): 32 mg/L (≈ 59.5 µM) | MIC (Staph aureus 1031 [4]): > 64 mg/L | MIC (Staph aureus 2810): 32 mg/L (≈ 59.5 µM)

COc1ccc2nccc([C@@H](O)CNC3(C(=O)O)CCCN(C4CC(c5ccccc5)C4)CC3)c2n1 (stereo partly drawn) [Example 159, 4-{[(2R)-2-hydroxy-2-(6-methoxy-1,5-naphthyridin-4-yl)ethyl]amino}1-(3-phenylcyclobutyl)azepane-4-carboxylic acid]
MIC (Staph aureus 1031 [3]): 4 mg/L (≈ 8.15 µM) | MIC (Staph aureus 1031 [4]): 16 mg/L (≈ 32.6 µM) | MIC (Staph aureus 2810): 4 mg/L (≈ 8.15 µM)

COC(=O)C1(NC[C@H](O)c2ccnc3ccc(OC)nc23)CCCN(C2CC(c3ccccc3)C2)CC1 (stereo partly drawn) [Example 160, methyl 4-((R)-2-hydroxy-2-(6-methoxy-1,5-naphthyridin-4-yl)ethylamino)-1-(3-phenylcyclobutyl)azepane-4-carboxylate]
MIC (Staph aureus 1031 [3]): 2 mg/L (≈ 3.96 µM) | MIC (Staph aureus 1031 [4]): 4 mg/L (≈ 7.93 µM) | MIC (Staph aureus 2810): 2 mg/L (≈ 3.96 µM)
